The test system of one data set is human cancer cell lines. Kind of data set: Cytotoxicity assay (calcein AM / CellTiter-Glo) in carcinoma cell lines. The data set is classed as cell-based. To be noted: for improvement of cytotoxic activity over the parent natural product: versus parent 1, breast, colorectal, lung and prostate carcinoma lines; for potency improvement of amide-linked versus ester-linked neoglycoside: ABA compound compared with ester analog bearing the same sugar; for cytotoxic potency compared to parent 1: in one or more cell lines, comparison with betulinic acid (1). How it is done: The cytoxicity of the library members was assessed in seven human cancer cell lines representing a broad range of carcinomas including breast, colorectal, CNS, lung and prostate.
The cytoxicity of ABA1-5 was evaluated in human cell lines of breast, colorectal, lung and prostate carcinomas.
Testing was performed by the Keck-UWCCC Small Molecule Screening Facility (Madison, Wis.). Carcinoma cell lines were maintained and harvested as previously reported, along with compound handling and assay set up.^21 Cells were plated in 50 μL volumes in 384-well clear bottom tissue culture plates. Serial dilutions of 30 mM DMSO compound stock solutions were done in 96-well plates using a BioTek Precision XS liquid handler (Winooski, Vt.) to a concentration 100× greater than that of the most dilute assay. Final dilutions were performed in a 384-well plate in quadruplicate using a Beckman-Coulter Biomek FX liquid handler with a 384 channel pipetting head (Fullerton, Calif.) and were stored at −20° C. when not in use. Compounds were then added to the culture plates by the Biomek FX handler and were incubated at 37° C. for 72 h. The calcein AM reagent (acetoxymethyl ester; 30 μL, 10 μM) was then added, the cells were incubated for 30 m at 37° C., and plates were read for fluorescent emission (535 nm). Cell titer-glo reagent (15 μL; Promega Corp., Madison, Wis.) was added and the plates incubated for 10 m at room temperature with gentle agitation to lyse the cells. Each plate was reexamined for luminescence to verify inhibition. IC50 values for cytotoxicity were determined using XLift 4.2 as previously reported.^21

The test system of data set [1] is HIV-1 virus (IIIB strain). The data set can be described thus: Anti-HIV-1 cytoprotection (CPE) assay in CEM-SS cells. Type of data set: cell-based. To be noted: 1 μM; HIV-1 IIIB-infected CEM-SS cells. How it is done:
To assess the corresponding impact of differential glycosylation upon antiviral activity, the entire set of compounds was subsequently tested in a single dose (10 μM) anti-HIV-1 assay against CEM-SS cells (i.e., CD4+ T lymphocytes) infected with the IIIB strain of HIV-1. Compound efficacy was determined by the percent increase of cytoprotective effect (CPE), which is prevention of intercellular virus replication, over untreated HIV-1-infected cells.
Both cells and virus were mixed with compound (10 μM & 1 μM for ABA1-5 and […] for all others) in triplicate in 96-well plates and incubated for six days at 37° C. Compound cytoprotection and cytotoxicity were evaluated using MTS tetrazolium dye (Promega Corp., Madison, Wis.) as previously reported.^23 Each assay plate used the following controls: cells only, cells/virus, cells/compound, compound only. The reverse transcriptase inhibitor AZT and protease inhibitor Indinavir were included as positive controls.

SMILES strings stand for the structures. Some results are limits rather than exact numbers.

In the case of `C=C(C)[C@@H]1CC[C@]2(C(=O)O)CC[C@]3(C)[C@H](CC[C@@H]4[C@@]5(C)CC[C@H](NC(=O)CN(OC)[C@@H]6O[C@H](CO)[C@@H](O)[C@@H](O)[C@@H]6O)C(C)(C)[C@@H]5CC[C@]43C)[C@@H]12` [ABA1, (3S)-N-(N′-Methoxy-N′-β-D-altrosylglycyl)betulinic acid], in the data set on human cancer cell lines, the “improvement of cytotoxic activity over the parent natural product” value (“improvement … over the parent natural product” for short) is given as around 2 fold.
Take `C=C(C)[C@@H]1CC[C@]2(C(=O)O)CC[C@]3(C)[C@H](CC[C@@H]4[C@@]5(C)CC[C@H](NC(=O)CN(OC)C6OC[C@H](O)[C@H](O)[C@@H]6O)C(C)(C)[C@@H]5CC[C@]43C)[C@@H]12` (stereo partly drawn) [ABA4, (3S)-N-(N′-Methoxy-N′-L-ribosylglycyl)betulinic acid]: in the data set with human cancer cell lines, the “potency improvement of amide-linked versus ester-linked neoglycoside” value was at least 6 fold and the “improvement … over the parent natural product” value is listed as around 2 fold.
Regarding `C=C(C)[C@@H]1CC[C@]2(C(=O)O)CC[C@]3(C)[C@H](CC[C@@H]4[C@@]5(C)CC[C@H](NC(=O)CN(OC)C6OC[C@@H](O)[C@H](O)[C@H]6O)C(C)(C)[C@@H]5CC[C@]43C)[C@@H]12` (stereo partly drawn) [ABA5, (3S)-N-(N′-Methoxy-N′-D-xylosylglycyl)betulinic acid], in the data set with human cancer cell lines, the “potency improvement of amide-linked versus ester-linked neoglycoside” value is given as at most 2 fold and the “improvement … over the parent natural product” value is around 2 fold.
Regarding `C=C(C)[C@@H]1CC[C@]2(C(=O)O)CC[C@]3(C)[C@H](CC[C@@H]4[C@@]5(C)CC[C@H](OC(=O)CN(OC)[C@@H]6O[C@H](CO)[C@@H](O)[C@@H](O)[C@H]6O)C(C)(C)[C@@H]5CC[C@]43C)[C@@H]12` [BA1, (3S)-O-(N-Methoxy-N-β-D-allosylglycyl)betulinic acid], the “cytotoxic potency compared to parent 1” value in the data set with human cancer cell lines was “equipotent”.
With `C=C(C)[C@@H]1CC[C@]2(C(=O)O)CC[C@]3(C)[C@H](CC[C@@H]4[C@@]5(C)CC[C@H](OC(=O)CN(OC)C6O[C@@H](C)[C@@H](O)[C@@H](O)[C@@H]6O)C(C)(C)[C@@H]5CC[C@]43C)[C@@H]12` (stereo partly drawn) [BA9, (3S)-O-(N-Methoxy-N-L-fucosylglycyl)betulinic acid], in the data set on human cancer cell lines, the “cytotoxic potency compared to parent 1” value is “equipotent”.
The IC50 is the midpoint of a concentration-inhibition curve. In the case of `C=C(C)[C@@H]1CC[C@]2(C(=O)O)CC[C@]3(C)C(CCC4[C@@]5(C)CC[C@H](OC(=O)CN(OC)C6O[C@@H](C)[C@H](O)[C@@H](O)[C@H]6O)C(C)(C)C5CC[C@]43C)C12` (stereo partly drawn) [BA27], in the data set on human cancer cell lines (ester-linked BA series, 72 h incubation, cell line not specified / at least one cell line), the half-inhibitory concentration (IC50) is at least 25 µM.
Take `C=C(C)[C@@H]1CC[C@]2(C(=O)O)CC[C@]3(C)C(CCC4[C@@]5(C)CC[C@H](OC(=O)CN(OC)[C@H]6OC[C@H](O)[C@@H](O)[C@@H]6O)C(C)(C)C5CC[C@]43C)C12` (stereo partly drawn) [BA32, (3S)-O-(N-Methoxy-N-β-L-xylosylglycyl)betulinic acid]: in the data set on human cancer cell lines, the “cytotoxic potency compared to parent 1” value is given as “equipotent”.
Same read-out and setting: next, `C=C(C)[C@@H]1CC[C@]2(C(=O)O)CC[C@]3(C)[C@H](CCC4[C@@]5(C)CC[C@H](OC(=O)CNOC)C(C)(C)C5CC[C@]43C)C12` (stereo partly drawn) [compound 7, (3S)-O-(N-Methoxyglycyl)betulinic acid]: “relatively similar potencies”.
On to `C=C(C)[C@@H]1CC[C@]2(C(=O)O)CC[C@]3(C)[C@H](CC[C@@H]4[C@@]5(C)CC[C@H](NC(=O)CNOC)C(C)(C)[C@@H]5CC[C@]43C)[C@@H]12` [compound 10, (3S)-N-(N′-Methoxyglycyl)aminobetulinic acid], for which the “increase in CPE” value in data set [1] is reported as “no noticeable activity”. In addition, the “cytotoxic potency compared to parent 1” value in the data set with human cancer cell lines is reported as “relatively similar potencies”.

These data come from patent US8653043B2, “Enhanced neoglycosides through neoglycosylation and methods of use thereof” (Wisconsin Alumni Research Foundation, priority 2009, dated 2014).
